pIC50: −log10 of the molar value. Where a name gives a salt, the structure may show the parent alone. Read-outs that look alike come from different tables or passages of the source.
Assays:
[1] = biological target: Cathepsin D (Cat D) (Homo sapiens (Human), UniProt P07339); assay: In vitro enzymatic Cathepsin D (Cat D) FRET assay; type: biochemical
[2] = biological target: BACE (Homo sapiens (Human), UniProt P56817); assay: In vitro BACE cell-based assay (Aβ40 in conditioned medium, sandwich ELISA)
[3] = test system: Abeta 40; assay: In vivo inhibition of beta-secretase: Abeta 40 reduction in CSF and brain of the rat; conditions: after 4 hrs; for % reduction of rat CSF levels at 10 pmk / % reduction of rat CSF levels (3 mpk): Abeta 40 in rat CSF; for % reduction of rat CSF levels at 10 pmk / % reduction of rat brain levels at 10 mpk: 10 mpk; for % reduction of rat brain levels at 10 mpk / % reduction of rat brain levels (3 mpk): Abeta 40 in rat brain
[4] = biological target: Beta Secretase enzyme (BACE) (Homo sapiens (Human), UniProt P56817); assay: In vitro enzymatic BACE FRET assay; type: biochemical; conditions: read-out: BACE1 Enzyme assay IC50
Sequence of Beta Secretase enzyme (BACE) (P56817 46-501): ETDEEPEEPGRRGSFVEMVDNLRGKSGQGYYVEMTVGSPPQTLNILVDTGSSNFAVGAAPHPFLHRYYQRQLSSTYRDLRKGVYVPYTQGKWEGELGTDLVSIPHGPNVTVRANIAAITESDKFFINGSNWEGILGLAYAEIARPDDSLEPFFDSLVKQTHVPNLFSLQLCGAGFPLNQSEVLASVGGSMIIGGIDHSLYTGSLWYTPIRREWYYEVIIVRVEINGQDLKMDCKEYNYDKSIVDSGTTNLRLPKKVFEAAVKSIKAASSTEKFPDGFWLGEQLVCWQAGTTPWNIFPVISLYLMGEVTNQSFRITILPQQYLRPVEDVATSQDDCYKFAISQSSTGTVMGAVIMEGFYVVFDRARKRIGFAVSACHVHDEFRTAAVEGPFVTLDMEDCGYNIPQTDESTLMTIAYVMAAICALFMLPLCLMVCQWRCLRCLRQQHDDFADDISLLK

Sequence of Cathepsin D (Cat D) (P07339 65-412, species assumed): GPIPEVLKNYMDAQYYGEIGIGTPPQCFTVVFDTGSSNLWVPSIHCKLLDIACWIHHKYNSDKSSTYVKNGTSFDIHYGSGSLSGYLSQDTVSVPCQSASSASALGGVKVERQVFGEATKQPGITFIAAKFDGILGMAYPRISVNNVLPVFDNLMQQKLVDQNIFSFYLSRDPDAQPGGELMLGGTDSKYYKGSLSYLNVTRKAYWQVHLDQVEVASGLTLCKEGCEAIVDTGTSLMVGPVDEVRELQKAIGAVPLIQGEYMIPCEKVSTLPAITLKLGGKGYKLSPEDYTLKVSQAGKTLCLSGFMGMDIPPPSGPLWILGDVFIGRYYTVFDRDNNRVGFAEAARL
Sequence of BACE (P56817 46-501, species assumed): as the sequence (P56817 46-501) above

Compound	pIC50 ([1]; read-out: CatD IC50)	IC50 [2] [µM]	pIC50 [4]	pIC50 ([1]; Cat D FRET assay, first procedure, read-out: Cat D IC50)	% reduction of rat CSF levels at 10 pmk [3] [%]	% reduction of rat brain levels at 10 mpk [3] [%]	% reduction of rat CSF levels (3 mpk) [3]	% reduction of rat brain levels (3 mpk) [3]	pIC50 [2]
NC1=N[C@@](c2cc(NC(=O)c3cnc(OCc4ncco4)cn3)ccc2F)(C(F)F)[C@H]2C[C@H]2O1 [Example 167, N-(3-((1R,5S,6R)-3-amino-5-(difluoromethyl)-2-oxa-4-azabicyclo[4.1.0]hept-3-en-5-yl)-4-fluorophenyl)-5-(oxazol-2-ylmethoxy)pyrazine-2-carboxamide]	3.12	0.0103	7.91	–	60	41	–	–	–
CC#CCOc1cnc(C(=O)Nc2ccc(F)c([C@@]3(C(F)F)N=C(N)O[C@@H]4C[C@@H]43)c2)cn1 [Example 96, N-(3-((1R,5S,6R)-3-amino-5-(difluoromethyl)-2-oxa-4-azabicyclo[4.1.0]hept-3-en-5-yl)-4-fluorophenyl)-5-(but-2-yn-1-yloxy)pyrazine-2-carboxamide trifluoroacetate]	3.33	0.0033	9.00	–	24	1	–	–	–
NC1=N[C@@](c2cc(NC(=O)c3ccc(Br)cn3)ccc2F)(C(F)F)[C@H]2C[C@H]2O1 [Example 74, N-(3-((1R,5S,6R)-3-amino-5-(difluoromethyl)-2-oxa-4-azabicyclo[4.1.0]hept-3-en-5-yl)-4-fluorophenyl)-5-bromopicolinamide]	3.55	0.0181	7.61	–	56	46	–	–	–
COc1cc(C#N)cnc1C(=O)Nc1ccc(F)c([C@@]2(C(F)F)N=C(N)O[C@@H]3C[C@@H]32)c1 [Example 45, N-(3-((1R,5S,6R)-3-amino-5-(difluoromethyl)-2-oxa-4-azabicyclo[4.1.0]hept-3-en-5-yl)-4-fluorophenyl)-5-cyano-3-methoxypicolinamide]	2.46	0.0372	7.26	–	31	6	–	–	–
COc1cnc(C(=O)Nc2ccc(F)c([C@@]3(C(F)F)N=C(N)O[C@@H]4C[C@@H]43)c2)c(Cl)c1 [Example 70, N-(3-((1R,5S,6R)-3-amino-5-(difluoromethyl)-2-oxa-4-azabicyclo[4.1.0]hept-3-en-5-yl)-4-fluorophenyl)-3-chloro-5-methoxypicolinamide]	3.42	0.0386	7.25	–	65	51	–	–	–
C#CCOc1cnc(C(=O)Nc2ccc(F)c([C@@]3(C(F)F)N=C(N)O[C@@H]4C[C@@H]43)c2)cn1 [Example 95, N-(3-(((1R,5S,6R)-3-amino-5-(difluoromethyl)-2-oxa-4-azabicyclo[4.1.0]hept-3-en-5-yl)-4-fluorophenyl)-5-(prop-2-yn-1-yloxy)pyrazine-2-carboxamide trifluoroacetate]	3.84	0.008	8.46	–	82	77	–	–	–
Cc1cc(Cl)cnc1C(=O)Nc1ccc(F)c([C@@]2(C(F)F)N=C(N)O[C@@H]3C[C@@H]32)c1 [Example 43, N-(3-((1R,5S,6R)-3-amino-5-(difluoromethyl)-2-oxa-4-azabicyclo[4.1.0]hept-3-en-5-yl)-4-fluorophenyl)-5-chloro-3-methylpicolinamide]	3.22	0.0314	7.65	< 3.40	70	59	–	–	–
NC1=N[C@](CF)(c2cc(NC(=O)c3ncc(Cl)cc3Cl)ccc2F)[C@H]2C[C@H]2O1 [Example 193]	3.06	0.0108	7.35	–	75	67	–	–	–
Cc1cc(C#N)cnc1C(=O)Nc1ccc(F)c([C@@]2(C(F)F)N=C(N)O[C@@H]3C[C@@H]32)c1 [Example 44, N-(3-((1R,5S,6R)-3-amino-5-(difluoromethyl)-2-oxa-4-azabicyclo[4.1.0]hept-3-en-5-yl)-4-fluorophenyl)-5-cyano-3-methylpicolinamide]	3.42	0.017	7.85	–	80	73	69 (3 mpk) %	52 (3 mpk) %	–
NC1=N[C@](CF)(c2cc(NC(=O)c3ccc(Cl)cn3)ccc2F)[C@H]2C[C@H]2O1 [Example 117, N-(3-((1R,5S,6R)-3-amino-5-(fluoromethyl)-2-oxa-4-azabicyclo[4.1.0]hept-3-en-5-yl)-4-fluorophenyl)-5-chloropicolinamide]	3.33	0.0053	7.68	–	78	71	–	–	–
NC1=N[C@@](c2cc(NC(=O)c3ncc(Cl)cc3CO)ccc2F)(C(F)F)[C@H]2C[C@H]2O1 [Example 419, N-(3-((1R,5S,6R)-3-amino-5-(difluoromethyl)-2-oxa-4-azabicyclo-[4.1.0]hept-3-en-5-yl)-4-fluorophenyl)-5-chloro-3-(hydroxymethyl)picolinamide]	3.56	–	7.48	–	57	42	–	–	7.53
NC1=N[C@](CF)(c2cc(NC(=O)c3cnc(OCC(F)(F)F)cn3)cc(Cl)c2F)[C@H]2C[C@H]2O1 [Example 90, N-(3-((1R,5S,6R)-3-amino-5-(fluoromethyl)-2-oxa-4-azabicyclo[4.1.0]hept-3-en-5-yl)-5-chloro-4-fluorophenyl)-5-(2,2,2-trifluoroethoxy)pyrazine-2-carboxamide]	3.04	0.0213	7.87	–	48	31	–	–	–

Further lines, with some results ahead:

pIC50 ([1]; read-out: CatD IC50)	IC50 [2] [µM]	pIC50 [4]	pIC50 ([1]; Cat D FRET assay, first procedure, read-out: Cat D IC50)	Compound	% reduction of rat CSF levels at 10 pmk [3] [%]	% reduction of rat brain levels at 10 mpk [3] [%]	% reduction of rat CSF levels (3 mpk) [3]	% reduction of rat brain levels (3 mpk) [3]	pIC50 [2]
2.90	0.0069	7.45	–	N#Cc1cnc(C(=O)Nc2ccc(F)c([C@@]3(C(F)F)N=C(N)O[C@@H]4C[C@@H]43)c2)c(F)c1 [Example 388, N-(3-((1R,5S,6R)-3-amino-5-(difluoromethyl)-2-oxa-4-azabicyclo[4.1.0]hept-3-en-5-yl)-4-fluorophenyl)-5-cyano-3-fluoropicolinamide]	21	4	–	–	–
2.54	0.006	7.36	–	NC1=N[C@](CF)(c2cc(NC(=O)c3ncc(Cl)cc3Cl)ccc2Cl)[C@H]2C[C@H]2O1 [Example 281, N-(3-((1R,5S,6R)-3-amino-5-(fluoromethyl)-2-oxa-4-azabicyclo[4.1.0]hept-3-en-5-yl)-4-chlorophenyl)-3,5-dichloropicolinamide]	70	72	55 (3 mpk) %	34 (3 mpk) %	–
2.80	0.0075	7.51	–	Cc1cc(C#N)cnc1C(=O)Nc1ccc(Cl)c([C@@]2(CF)N=C(N)O[C@@H]3C[C@@H]32)c1 [Example 283, N-(3-((1R,5S,6R)-3-amino-5-(fluoromethyl)-2-oxa-4-azabicyclo[4.1.0]hept-3-en-5-yl)-4-chlorophenyl)-5-cyano-3-methylpicolinamide]	75	69	61 (3 mpk) %	44 (3 mpk) %	–
2.98	0.0256	7.38	–	COc1cnc(C(=O)Nc2ccc(F)c([C@@]3(C(F)F)N=C(N)O[C@@H]4C[C@@H]43)c2)c(F)c1 [Example 306, N-(3-((1R,5S,6R)-3-amino-5-(difluoromethyl)-2-oxa-4-azabicyclo[4.1.0]hept-3-en-5-yl)-4-fluorophenyl)-3-fluoro-5-methoxypicolinamide]	13	−1	–	–	–
2.87	0.0175	7.94	–	COCc1cc(C#N)cnc1C(=O)Nc1ccc(F)c([C@@]2(C(F)F)N=C(N)O[C@@H]3C[C@@H]32)c1 [Example 391, N-(3-((1R,5S,6R)-3-amino-5-(difluoromethyl)-2-oxa-4-azabicyclo[4.1.0]hept-3-en-5-yl)-4-fluorophenyl)-5-cyano-3-(methoxymethyl)picolinamide]	54	24	–	–	–
2.23	0.0178	7.67	–	NC1=N[C@@](c2cc(NC(=O)c3cnc(OC(F)F)cn3)ccc2F)(C(F)F)[C@H]2C[C@H]2O1 [Example 238, N-(3-((1R,5S,6R)-3-amino-5-(difluoromethyl)-2-oxa-4-azabicyclo[4.1.0]hept-3-en-5-yl)-4-fluorophenyl)-5-(difluoromethoxy) pyrazine-2-carboxamide]	8	16	–	–	–
2.99	0.0059	7.38	–	N#Cc1cnc(C(=O)Nc2ccc(F)c([C@@]3(CF)N=C(N)O[C@@H]4C[C@@H]43)c2)c(Cl)c1 [Example 228, N-(3-((1R,5S,6R)-3-amino-5-(fluoromethyl)-2-oxa-4-azabicyclo[4.1.0]hept-3-en-5-yl)-4-fluorophenyl)-3-chloro-5-cyanopicolinamide]	54	33	–	–	–

Reference: patent publication US9085576B2 (AMGEN INC., priority 2013, dated 2015)
